For experiment [1], the target named is T1, RXFP4 (Homo sapiens, UniProt Q8TDU9).
T1 construct: expressed in transfected cells
The experiment in a line: cAMP activity (inhibition of forskolin-induced cAMP), CHO-K1 cells expressing RXFP4. In kind it is cell-based. The conditions noted are these: CHO-K1 RXFP4, pCRE-β-galactosidase reporter; forskolin 5 µM (method) / 1 µM (Fig. 3 legend); peptide 0.01 nM – 1 µM; mean ± SEM, n = 3, triplicate determinations; vs H3 acid: * H3 amide, ** p<0.01 H3 A-acid; read-out: RXFP4 cAMP pEC50 (converted). How it is done:
(§1) The ability of the peptides to activate the receptors RXFP3/RXFP4 was assessed by measuring their influence on cAMP signalling in CHO-K1 cells stably expressing RXFP3 or RXFP4 transfected with a pCRE-β-galactosidase reporter gene construct as previously described. A single concentration of forskolin was used to stimulate cAMP signalling in cells expressing RXFP3 (1 µM) and RXFP4 (5 µM) and peptide induced inhibition of cAMP signalling was measured by adding increasing concentrations of the peptides (0.01 nM – 1 µM). The ability of the peptides to inhibit forskolin-induced cAMP response (pEC50) was measured and expressed as mean ± SEM from three independent experiments with triplicate determinations within each assay. The inhibition curves were fitted to a single-site sigmoidal dose-response curve with variable slope using Graphpad PRISM 5.
(§2) Figure 3 Receptor binding affinity (pKi) and cAMP activity (pEC-50) curves of H3 relaxin and its variants at RXFP4. A) Competition binding curves of H3 relaxin variants at RXFP4 using a single concentration of Eu-INSL5 (2.5 nM) in the presence of increasing concentrations of the H3 relaxin peptides. B) RXFP4 activation curves of H3 relaxin variants measured in a cAMP activity assays in the presence of 1 µM forskolin. The data were expressed as mean ± SEM from at least three independent experiments.

The target of experiment [2] is T1, RXFP4. The experiment in a line: Competition binding, Eu-labelled mouse INSL5, CHO-K1 cells expressing RXFP4. The conditions noted are these: CHO-K1 cells stably expressing RXFP4; Eu-labelled mouse INSL5 2.5 nM; one site competition fit; mean ± SEM, n = 3, triplicate determinations; vs H3 acid: * H3 amide, ** p<0.01 H3 A-acid; read-out: RXFP4 Eu-INSL5 pKi (converted). How it is done:
(§3) The receptor binding affinity of the peptides was measured using CHO-K1 cells stably expressing RXFP3 and RXFP4. The competition binding assays were carried out as previously described, [27]. Briefly, a single concentration of Eu-labelled I5/R3 (0.5 nM) or Eu-labelled mouse INSL5 (2.5 nM) were used in presence of increasing concentration of peptides. The data were analyzed using GraphPad PRISM 5 (GraphPad Inc., San Diego, USA). The europium binding curves were fitted to a one site competition curve and the pKi values were expressed as the mean ± SEM of at least three independent experiments with triplicate determinations within each assay.
as §2

Experiment [3] addresses T2, RXFP3 (Homo sapiens, UniProt Q9NSD7).
T2 construct: expressed in transfected cells
T2 sequence (Q9NSD7 1-469): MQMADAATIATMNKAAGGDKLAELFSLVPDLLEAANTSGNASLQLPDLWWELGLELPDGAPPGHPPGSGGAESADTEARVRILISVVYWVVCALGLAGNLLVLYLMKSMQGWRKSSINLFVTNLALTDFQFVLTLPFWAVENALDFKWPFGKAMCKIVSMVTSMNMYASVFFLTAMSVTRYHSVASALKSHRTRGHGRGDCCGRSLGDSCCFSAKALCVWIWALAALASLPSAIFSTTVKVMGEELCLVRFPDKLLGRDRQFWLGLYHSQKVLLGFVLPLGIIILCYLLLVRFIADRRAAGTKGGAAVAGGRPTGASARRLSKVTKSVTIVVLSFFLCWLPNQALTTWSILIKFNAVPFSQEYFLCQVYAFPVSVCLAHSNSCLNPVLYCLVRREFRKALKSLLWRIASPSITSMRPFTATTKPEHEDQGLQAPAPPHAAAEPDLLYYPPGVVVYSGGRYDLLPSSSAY
Description: Competition binding, Eu-labelled I5/R3, CHO-K1 cells expressing RXFP3. The conditions noted are these: CHO-K1 cells stably expressing RXFP3; Eu-I5/R3 0.5 nM; one site competition fit; mean ± SEM, n in parentheses in cell (3; H3 amide 4), triplicate determinations; ** p<0.01 vs H3 acid (H3 amide, H3 A-acid); read-out: RXFP3 Eu-H3/I5 pKi (converted). How it is done:
as §3
(§4) Figure 2 Receptor binding affinity (pKi) and cAMP activity (pEC-50) curves of H3 relaxin and its variants at RXFP3. A) Competition binding curves of H3 relaxin variants using a single concentration of Eu-I5/R3 (0.5 nM) in the presence of increasing concentrations of the H3 relaxin peptides. B) RXFP3 activation curves of H3 relaxin variants measured in a cAMP activity assay in the presence of 5 µM forskolin. The data were expressed as mean ± SEM. from at least three independent experiments.

The conditions of experiment [4]: cited from earlier work; for activity by C-terminal form: C-terminal amide vs acid. The text has this: The bioactivity of many polypeptide hormones often requires a form of post-translational modification of their precursors. An example of a widespread modification is C-terminal amidation which often leads to an increase in bioactivity of peptides [32]–[35]. In some cases, amidation of the C-terminus has been reported to have detrimental effect on the activity of peptides, [36]. […] In the case of relaxin family peptides, H2 relaxin and INSL3, both p ...

The target in experiment [5] is T2, RXFP3. The experiment in a line: cAMP activity (inhibition of forskolin-induced cAMP), CHO-K1 cells expressing RXFP3. The class given is cell-based. The conditions noted are these: CHO-K1 RXFP3, pCRE-β-galactosidase reporter; forskolin 1 µM (method) / 5 µM (Fig. 2 legend); peptide 0.01 nM – 1 µM; mean ± SEM, n = 3, triplicate determinations; ** p<0.01 vs H3 acid (H3 amide, H3 A-acid); read-out: RXFP3 cAMP pEC50 (converted). How it is done: as §1, §4

No end group written: not given here.

T1 sequence (Q8TDU9 whole entry, species assumed): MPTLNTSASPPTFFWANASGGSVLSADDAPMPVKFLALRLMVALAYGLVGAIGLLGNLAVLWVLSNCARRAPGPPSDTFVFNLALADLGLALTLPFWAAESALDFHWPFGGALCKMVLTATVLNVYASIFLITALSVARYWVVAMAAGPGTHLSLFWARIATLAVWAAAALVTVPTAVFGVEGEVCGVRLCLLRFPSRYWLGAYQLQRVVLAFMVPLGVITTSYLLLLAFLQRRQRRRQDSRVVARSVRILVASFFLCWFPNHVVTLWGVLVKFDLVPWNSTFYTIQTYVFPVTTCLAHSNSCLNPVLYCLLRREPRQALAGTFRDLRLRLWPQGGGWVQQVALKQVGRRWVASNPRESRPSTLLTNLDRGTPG

As to `CC[C@H](C)[C@@H]1NC(=O)[C@H](Cc2ccccc2)NC(=O)[C@H](CCC(=O)O)NC(=O)[C@H](CCCNC(=N)N)NC(=O)CNC(=O)[C@@H](NC(=O)[C@H](CC(C)C)NC(=O)[C@H](CCCNC(=N)N)NC(=O)[C@@H](NC(=O)CNC(=O)[C@H](Cc2ccc(O)cc2)NC(=O)[C@@H]2CCCN2C(=O)[C@H](C)NC(=O)[C@H](C)NC(=O)[C@@H](N)CCCNC(=N)N)C(C)C)CSSC[C@@H]2NC(=O)[C@@H](NC(=O)[C@H](CO)NC(=O)[C@H](CO)NC(=O)[C@H](CO)NC(=O)[C@H](CC(C)C)NC(=O)CNC(=O)[C@H](C)NC(=O)[C@H](CC(C)C)NC(=O)[C@@H](NC(=O)[C@@H](N)CC(=O)O)C(C)C)CSSC[C@H](NC(=O)CNC(=O)[C@H](Cc3c[nH]c4ccccc34)NC(=O)[C@H](CCCCN)NC2=O)C(=O)N[C@@H](CO)C(=O)N[C@@H](CCCCN)C(=O)N[C@@H](CO)C(=O)N[C@@H](CCC(=O)O)C(=O)N[C@@H]([C@@H](C)CC)C(=O)N[C@@H](CO)C(=O)N[C@@H](CO)C(=O)N[C@@H](CC(C)C)C(=O)N[C@H](C(=O)O)CSSC[C@@H](C(=O)NCC(=O)NCC(=O)N[C@@H](CO)C(=O)N[C@@H](CCCNC(=N)N)C(=O)N[C@@H](Cc2c[nH]c3ccccc23)C(=O)O)NC(=O)[C@H]([C@@H](C)O)NC(=O)[C@H](Cc2ccccc2)NC(=O)[C@H]([C@@H](C)CC)NC(=O)[C@H](C(C)C)NC(=O)[C@H](C)NC(=O)[C@H](CCCNC(=N)N)NC1=O` [H3 acid], the EC50 at RXFP4 [1] was 1.15 nM. Further, the Ki at RXFP4 [2] is 8.71 nM; at RXFP3 [3], 18.6 nM.

As for angiotensin II: polypeptide hormone, in experiment [4], the “activity by C-terminal form” value is “active as a C-terminal acid form”.

Regarding `CC[C@H](C)[C@@H]1NC(=O)[C@H](Cc2ccccc2)NC(=O)[C@H](CCC(=O)O)NC(=O)[C@H](CCCNC(=N)N)NC(=O)CNC(=O)[C@@H](NC(=O)[C@H](CC(C)C)NC(=O)[C@H](CCCNC(=N)N)NC(=O)[C@@H](NC(=O)CNC(=O)[C@H](Cc2ccc(O)cc2)NC(=O)[C@@H]2CCCN2C(=O)[C@H](C)NC(=O)[C@H](C)NC(=O)[C@@H](N)CCCNC(=N)N)C(C)C)CSSC[C@@H]2NC(=O)[C@@H](NC(=O)[C@H](CO)NC(=O)[C@H](CO)NC(=O)[C@H](CO)NC(=O)[C@H](CC(C)C)NC(=O)CNC(=O)[C@H](C)NC(=O)[C@H](CC(C)C)NC(=O)[C@@H](NC(=O)[C@@H](N)CC(=O)O)C(C)C)CSSC[C@H](NC(=O)CNC(=O)[C@H](Cc3c[nH]c4ccccc34)NC(=O)[C@H](CCCCN)NC2=O)C(=O)N[C@@H](CO)C(=O)N[C@@H](CCCCN)C(=O)N[C@@H](CO)C(=O)N[C@@H](CCC(=O)O)C(=O)N[C@@H]([C@@H](C)CC)C(=O)N[C@@H](CO)C(=O)N[C@@H](CO)C(=O)N[C@@H](CC(C)C)C(=O)N[C@H](C(=O)O)CSSC[C@@H](C(=O)NCC(=O)NCC(=O)N[C@@H](CO)C(=O)N[C@@H](CCCNC(=N)N)C(=O)N[C@@H](Cc2c[nH]c3ccccc23)C(N)=O)NC(=O)[C@H]([C@@H](C)O)NC(=O)[C@H](Cc2ccccc2)NC(=O)[C@H]([C@@H](C)CC)NC(=O)[C@H](C(C)C)NC(=O)[C@H](C)NC(=O)[C@H](CCCNC(=N)N)NC1=O` [H3 A-acid], the EC50 is 4.9 nM at RXFP3 [5] and 34.7 nM on RXFP4 [1]. The Ki on RXFP4 [2] is 117 nM; on RXFP3 [3], 151 nM.

For `CC[C@H](C)[C@@H]1NC(=O)[C@H](Cc2ccccc2)NC(=O)[C@H](CCC(=O)O)NC(=O)[C@H](CCCNC(=N)N)NC(=O)CNC(=O)[C@@H](NC(=O)[C@H](CC(C)C)NC(=O)[C@H](CCCNC(=N)N)NC(=O)[C@@H](NC(=O)CNC(=O)[C@H](Cc2ccc(O)cc2)NC(=O)[C@@H]2CCCN2C(=O)[C@H](C)NC(=O)[C@H](C)NC(=O)[C@@H](N)CCCNC(=N)N)C(C)C)CSSC[C@@H]2NC(=O)[C@@H](NC(=O)[C@H](CO)NC(=O)[C@H](CO)NC(=O)[C@H](CO)NC(=O)[C@H](CC(C)C)NC(=O)CNC(=O)[C@H](C)NC(=O)[C@H](CC(C)C)NC(=O)[C@@H](NC(=O)[C@@H](N)CC(=O)O)C(C)C)CSSC[C@H](NC(=O)CNC(=O)[C@H](Cc3c[nH]c4ccccc34)NC(=O)[C@H](CCCCN)NC2=O)C(=O)N[C@@H](CO)C(=O)N[C@@H](CCCCN)C(=O)N[C@@H](CO)C(=O)N[C@@H](CCC(=O)O)C(=O)N[C@@H]([C@@H](C)CC)C(=O)N[C@@H](CO)C(=O)N[C@@H](CO)C(=O)N[C@@H](CC(C)C)C(=O)N[C@H](C(N)=O)CSSC[C@@H](C(=O)NCC(=O)NCC(=O)N[C@@H](CO)C(=O)N[C@@H](CCCNC(=N)N)C(=O)N[C@@H](Cc2c[nH]c3ccccc23)C(=O)O)NC(=O)[C@H]([C@@H](C)O)NC(=O)[C@H](Cc2ccccc2)NC(=O)[C@H]([C@@H](C)CC)NC(=O)[C@H](C(C)C)NC(=O)[C@H](C)NC(=O)[C@H](CCCNC(=N)N)NC1=O` [H3 B-acid], the EC50 on RXFP3 [5] was 0.955 nM; at RXFP4 [1] it was 1.32 nM. The Ki was 19.1 nM on RXFP4 [2] and 24 nM on RXFP3 [3].

Oxytocin: polypeptide hormone: the “activity by C-terminal form” value in experiment [4] is recorded as “only active as a C-terminal amide form”.

B1: INSL3: relaxin family peptide (peptide, UniProt P51460 21-55; P51460 106-131, looked up)
Insulin-like 3 B chain: LGPAPTPEMREKLCGHHFVRALVRVCGGPRWSTEA
Insulin-like 3 A chain: AAATNPARYCCLSGCTQQDLLTLCPY
modifications: not fully specified (bridges); ends and bridges not checked
notes: relaxin family peptide
With B1, in experiment [4], the “activity of acid vs amide form” value is “equally active either in acid or amide form”.
